Measurements taken from ChEMBL document CHEMBL1128018, “Structure-activity relationships of the non-peptidyl growth hormone secretagogue L-692,429” (1994).

Species: Rattus norvegicus
Experiment: Growth hormone release was determined in rat pituitary cells at 1 uM; A - weakly active
Format: functional, cell-based
Details: Pituitary gland cell

For `CC(C)(CC(=O)N[C@@H]1CCc2ccccc2N(Cc2ccc(-c3ccccc3-c3nn[nH]n3)cc2)C1=O)NCC(=O)O`, the “Growth hormone release activity call at 1 uM” value was “Weak activity”.
For `C[C@H](O)CCNC(C)(C)CC(=O)N[C@@H]1CCc2ccccc2N(Cc2ccc(-c3ccccc3-c3nn[nH]n3)cc2)C1=O`, the “Growth hormone release activity call at 1 uM” value was “Weak activity”.
In the case of `CC(C)(CC(=O)N[C@@H]1CCc2ccccc2N(Cc2ccc(-c3ccccc3-c3nn[nH]n3)cc2)C1=O)NCCOCc1ccccc1`, the “Growth hormone release activity call at 1 uM” value is reported as “Weak activity”.
For `C[C@H](CNC(C)(C)CC(=O)N[C@@H]1CCc2ccccc2N(Cc2ccc(-c3ccccc3-c3nn[nH]n3)cc2)C1=O)OCc1ccccc1`, the “Growth hormone release activity call at 1 uM” value was “Weak activity”.

Species: Rattus norvegicus
Experiment: Growth hormone release from rat pituitary cells
Format: functional
Details: Pituitary gland cell, read-out: ED50 (the source's name)

In order of falling EC50:
1. CC(C)[C@H](O)CNC(C)(C)CC(=O)N[C@@H]1CCc2ccccc2N(Cc2ccc(-c3ccccc3-c3nn[nH]n3)cc2)C1=O  1000 nM
2. CC(C)(CC(=O)N[C@@H]1CCc2ccccc2N(Cc2ccc(-c3ccccc3-c3nn[nH]n3)cc2)C1=O)NC[C@H](O)c1ccccc1  1000 nM
3. C[C@H](O)CNC(C)(C)C(=O)N[C@@H]1CCc2ccccc2N(Cc2ccc(-c3ccccc3-c3nn[nH]n3)cc2)C1=O  700 nM
4. C[C@@H](O)CNC(C)(C)C(=O)N[C@@H]1CCc2ccccc2N(Cc2ccc(-c3ccccc3-c3nn[nH]n3)cc2)C1=O  300 nM
5. CC(=O)O[C@@H](C)CNC(C)(C)CC(=O)N[C@@H]1CCc2ccccc2N(Cc2ccc(-c3ccccc3-c3nn[nH]n3)cc2)C1=O  200 nM
6. CC(C)[C@@H](O)CNC(C)(C)CC(=O)N[C@@H]1CCc2ccccc2N(Cc2ccc(-c3ccccc3-c3nn[nH]n3)cc2)C1=O  200 nM
7. C[C@@H](O)CCNC(C)(C)C(=O)N[C@@H]1CCc2ccccc2N(Cc2ccc(-c3ccccc3-c3nn[nH]n3)cc2)C1=O  100 nM
8. C[C@@H](F)CNC(C)(C)CC(=O)N[C@@H]1CCc2ccccc2N(Cc2ccc(-c3ccccc3-c3nn[nH]n3)cc2)C1=O  90 nM
9. CC(C)(N)CC(=O)N[C@@H]1CCc2ccccc2N(Cc2ccc(-c3ccccc3-c3nn[nH]n3)cc2)C1=O  60 nM
10. CCOC(=O)CNC(C)(C)CC(=O)N[C@@H]1CCc2ccccc2N(Cc2ccc(-c3ccccc3-c3nn[nH]n3)cc2)C1=O  56 nM
11. CCCNC(C)(C)CC(=O)N[C@@H]1CCc2ccccc2N(Cc2ccc(-c3ccccc3-c3nn[nH]n3)cc2)C1=O  50 nM
12. C[C@H](O)CCNC(C)(C)C(=O)N[C@@H]1CCc2ccccc2N(Cc2ccc(-c3ccccc3-c3nn[nH]n3)cc2)C1=O  50 nM
13. CC(C)(CC(=O)N[C@@H]1CCc2ccccc2N(Cc2ccc(-c3ccccc3-c3nn[nH]n3)cc2)C1=O)NC[C@H](O)[C@@H](O)CO  40 nM
14. CC(C)(CC(=O)N[C@@H]1CCc2ccccc2N(Cc2ccc(-c3ccccc3-c3nn[nH]n3)cc2)C1=O)NCCO  30 nM
15. CC(C)(N)C(=O)N[C@@H]1CCc2ccccc2N(Cc2ccc(-c3ccccc3-c3nn[nH]n3)cc2)C1=O  30 nM
16. CO[C@H](C)CNC(C)(C)CC(=O)N[C@@H]1CCc2ccccc2N(Cc2ccc(-c3ccccc3-c3nn[nH]n3)cc2)C1=O  20 nM
17. CC(C)(O)CNC(C)(C)CC(=O)N[C@@H]1CCc2ccccc2N(Cc2ccc(-c3ccccc3-c3nn[nH]n3)cc2)C1=O  10 nM
18. C[C@@H](O)CCNC(C)(C)CC(=O)N[C@@H]1CCc2ccccc2N(Cc2ccc(-c3ccccc3-c3nn[nH]n3)cc2)C1=O  10 nM
19. CC(C)(CC(=O)N[C@@H]1CCc2ccccc2N(Cc2ccc(-c3ccccc3-c3nn[nH]n3)cc2)C1=O)NC[C@H](O)CO  10 nM
20. C[C@H](O)CNC(C)(C)CC(=O)N[C@@H]1CCc2ccccc2N(Cc2ccc(-c3ccccc3-c3nn[nH]n3)cc2)C1=O  7 nM
21. C[C@@H](O)CNC(C)(C)CC(=O)N[C@@H]1CCc2ccccc2N(Cc2ccc(-c3ccccc3-c3nn[nH]n3)cc2)C1=O [L-692585]  3 nM
